Measured values: patent publication US6407138B1, “Composition and method for preparing electrically neutral amino acid chelates free of interfering ions” (Albion International, Inc., priority 2000, dated 2002)

Assays:
Particle size = format: physicochemical
Description: The particle size found in Sample 1 and Sample 2 was about 70 mesh.

[1] = Rubbing between thumb and finger (hygroscopicity); format: physicochemical; details: rubbed between thumb and finger; moisture from thumb, finger and surrounding air
Description: Sample 1 was further compared to Sample 2 by rubbing a portion of each between the thumb and finger.

[2] = Shaking in a plastic bag (electrostatic behaviour of the powder); format: physicochemical; details: shaken in a plastic bag
Procedure: A 10:1 mixture of copper bisglycinate to terra alba (CaSO4) [Sample 1] was prepared and shaken together in a plastic bag. Next, a pure copper bisglycinate without the presence of terra alba [Sample 2] was also prepared and shaken in a plastic bag.

[3] = Addition to stimulated gastric solution (stability in acid solution, colour change); format: physicochemical; details: added to stimulated gastric solution
Procedure: Finally, Sample 2 was added to a stimulated gastric solution which caused the product to change color. Sample 1 was similarly added to a stimulated gastric solution.

[4] = zero ionic strength; reaction M^2+ + (Gly)^- <-> M(Gly)^+; cited from earlier work

Row | Compound | particle size (Particle size) | hygroscopicity: balling up with moisture [1] | electrostatic behaviour: product sticking to the walls of the bag [2] | color change in stimulated gastric solution (stability in acid solution) [3] | log of the equilibrium constant [4]
1 | NCC(=O)[O-].NCC(=O)[O-].[Cu+2] [Sample 2, copper bisglycinate] | about 70 mesh | quickly balled up | a blue hazei of product stuck the walls of the bag | change color | –
2 | copper | – | – | – | – | 8.56
